Data as given in patent US20200339651A1, “METHODS FOR B CELL PRECONDITIONING IN CAR THERAPY” (Novartis AG, priority 2014, published 2020).

Columns and labels:
[1] = tested on: huCAR19 CAR T cells; assay: In vivo proliferation of humanized CD19 CART cells with and without RAD001 dosing; parameters: species or system NSG mice
Description: Circles denote PBS; squares denote huCTL019; triangles denote huCTL019 with 3 mg/kg RAD001; inverted triangles denote huCTL019 with 0.3 mg/kg RAD001; diamonds denote huCTL019 with 0.03 mg/kg RAD001; and circles denote huCTL019 with 0.003 mg/kg RAD001.
Mice were administered 5×10^6 CAR T cells 7 days after tumor implantation. Cells were partially thawed in a 37 degree Celsius water bath and then completely thawed by the addition of 1 ml of cold sterile PBS to the tube containing the cells. The thawed cells were transferred to a 15 ml falcon tube and adjusted to a final volume of 10 mls with PBS. The cells were washed twice at 1000 rpm for 10 minutes each time and then counted on a hemocytometer. T cells were then resuspended at a concentration of 50×10^6 CAR T cells per ml of cold PBS and kept on ice until the mice were dosed. The mice were injected intravenously via the tail vein with 100 μl of the CAR T cells for a dose of 5×10^6 CAR T cells per mouse. Eight mice per group were treated either with 100 μl of PBS alone (PBS), or humanized CD19 CAR T cells.
(§1) A concentrated micro-emulsion of 50 mg equal to 1 mg RAD001 was formulated and then resuspended in D5W (dextrose 5% in water) at the time of dosing. Mice were orally dosed daily (via oral gavage) with 200 μl of the desired doses of RAD001.
Based on these doses, huCAR19 CAR T cells were dosed with and without RAD001 to determine the proliferative ability of these cells. The highest dose used was 3 mg/kg based on the levels of RAD001 in the blood 24 hours after dosing. As the concentration of RAD001 was above 10 nM 24 hours after the final dose of RAD001, several lower doses of RAD001 were used in the in vivo study with CAR T cells. The CAR T cells were dosed IV one day prior to the start of the daily oral RAD001 dosing. Mice were monitored via FACS for T cell expansion.

[2] = tested on: huCART19 cells; assay: CART proliferation in 4 day co-culture with Nalm-6 cells in the presence of RAD001; format: cell-based, human
Excerpt: A humanized, anti-human CD19 CAR (huCART19) lentiviral transfer vector was used to produce the genomic material packaged into VSVg pseudotyped lentiviral particles. The amino acid and nucleotide sequence of the humanized anti-human CD19 CAR (huCART19) is CAR 1, ID 104875 described in PCT publication, WO2014/153270, filed Mar. 15, 2014, and is designated SEQ ID NOs. 85 and 31 therein.
Lentiviral transfer vector DNA is mixed with the three packaging components VSVg env, gag/pol and rev in combination with lipofectamine reagent to transfect Lenti-X 293T cells. Medium is changed after 24 h and 30 h thereafter, the virus-containing media is collected, filtered and stored at −80° C. CARTs are generated by transduction of fresh or frozen naïve T cells obtained by negative magnetic selection of healthy donor blood or leukopak. T cells are activated by incubation with anti-CD3/anti-CD28 beads for 24 h, after which viral supernatant or concentrated virus (MOI=2 or 10, respectively) is added to the cultures. The modified T cells are allowed to expand for about 10 days. The percentage of cells transduced (expressing the CARs on the cell surface) and the level of CAR expression (relative fluorescence intensity, Geo Mean) are determined by flow cytometric analysis between days 7 and 9. The combination of slowing growth rate and T cell size approaching ˜350 fL determines the state for T cells to be cryopreserved for later analysis.
To evaluate the functionality of CARTs, the T cells are thawed and counted, and viability is assessed by Cellometer. The number of CAR-positive cells in each culture is normalized using non-transduced T cells (UTD). The impact of RAD001 on CARTs was tested in titrations with RAD001, starting at 50 nM. The target cell line used in all co-culture experiments is Nalm-6, a human pre-B cell acute lymphoblastic leukemia (ALL) cell line expressing CD19 and transduced to express luciferase.
For measuring the proliferation of CARTs, T cells are cultured with target cells at a ratio of 1:1. […] The number of T cells is assessed by flow cytometry using counting beads as reference.

[3] = Pharmacokinetics of RAD001 in the blood of NSG mice with NALM6 tumors; format: in vivo
Description: Diamonds denote the […] dose of RAD001; squares denote the 1 mg/kg dose of RAD001; triangles denote the 3 mg/kg dose of RAD001; and x's denote the 10 mg/kg dose of RAD001.
as §1
Mice were dosed daily with RAD001 starting 7 days post tumor implantation. Dosing groups were as follows: 0.3 mg/kg, 1 mg/kg, 3 mg/kg, and 10 mg/kg. Mice were bled on days 0 and 14 following the first and last dose of RAD001, at the following time points for PK analysis: 15 minutes, 30 minutes, 1 hour, 2 hours, 4 hours, 8 hours, 12 hours, and 24 hours.

[4] = tested on: NALM6-luc tumors; assay: NALM6-luc tumor growth in NSG mice with daily RAD001 dosing; format: in vivo; conditions: daily oral dosing of RAD001 alone at 0.3, 1, 3, and 10 mg/kg
Description: FIG. 8 depicts tumor growth measurements of NALM6-luc cells with daily RAD001 dosing at 0.3, 1, 3, and 10 mg/kg (mpk) or vehicle dosing. Circles denote the vehicle; squares denote the 10 mg/kg dose of RAD001; triangles denote the 3 mg/kg dose of RAD001, inverted triangles denote the 1 mg/kg dose of RAD001; and diamonds denote the 0.3 mg/kg dose of RAD001.
The NALM6 human acute lymphoblastic leukemia (ALL) cell line was developed from the peripheral blood of a patient with relapsed ALL. The cells were then tagged with firefly luciferase. These suspension cells grow in RPMI supplemented with 10% heat inactivated fetal bovine serum.
6 week old NSG (NOD.Cg-Prkdc^scidIl2rg^tm1Wjl/SzJ) mice were received from the Jackson Laboratory (stock number 005557).
NALM6-luc cells were grown and expanded in vitro in RPMI supplemented with 10% heat inactivated fetal bovine serum. The cells were then transferred to a 15 ml conical tube and washed twice with cold sterile PBS. NALM6-luc cells were then counted and resuspended at a concentration of 10×10^6 cells per milliliter of PBS. The cells were placed on ice and immediately (within one hour) implanted in the mice. NALM6-luc cells were injected intravenously via the tail vein in a 100 μl volume, for a total of 1×10^6 cells per mouse. […]

Question: Which results are given for `CO[C@H]1C[C@@H]2CC[C@@H](C)[C@@](O)(O2)C(=O)C(=O)N2CCCC[C@H]2C(=O)O[C@H]([C@H](C)C[C@@H]2CC[C@@H](OCCO)[C@H](OC)C2)CC(=O)[C@H](C)/C=C(\C)[C@@H](O)[C@@H](OC)C(=O)[C@H](C)C[C@H](C)/C=C/C=C/C=C/1C` [RAD001, (1R,9S,12S,15R,16E,18R,19R,21R,23S,24E,26E,28E,30S,32S,35R)-1,18-dihydroxy-12-{(1R)-2-[(1S,3R,4R)-4-(2-hydroxyethoxy)-3-methoxycyclohexyl]-1-methylethyl}-19,30-dimethoxy-15,17,21,23,29,35-hexamethyl-11,36-dioxa-4-aza-tricyclo[30.3.1.04,9]hexatriaconta-16,24,26,28-tetraene-2,3,10,14,20-pentaone]?
Answer: CAR T cell proliferation in vivo ([1]; RAD001 0.003 mg/kg daily, huCTL019): enhancement in CAR T cell proliferation, above the normal level of huCAR19 proliferation; enhanced proliferation of CD4+ CAR T cells compared with CD8+ CAR T cells ([1]; lowest doses of RAD001): more evident and prolonged; proliferation of CD8+ CAR T cells ([1]; lowest doses of RAD001): enhanced proliferation can be seen at early time points; proliferation of the CAR T cells in vivo ([1]; lowest doses of RAD001, daily oral): enhanced proliferation; proliferation of huCART19 cells compared with no RAD001 ([2]; 0.0032 and 0.016 nM RAD001, 4 day co-culture with Nalm-6): proliferation was higher than observed without the addition of RAD001; expansion of huCART19 cells ([2]; less than 0.016 nM of RAD001, 4 day co-culture with Nalm-6, 1:1): expanded; proliferation of CAR-expressing, transduced T cells ([2]; low doses of RAD001, cell culture system): enhanced; concentration of RAD001 ([3]; 24 hours after the final dose of RAD001): above 10 nM; concentration at 24 h ([3]; NSG, mouse, whole blood, day 0, 24 hours after dosing, lowest dose tested (0.3 mg/kg), oral): > 0.01 µM; RAD001 concentration in the blood ([3]; day 14, 24 hours after dosing, lowest dose tested (0.3 mg/kg), oral): above 10 nm; stability in the blood ([3]; tumor bearing mice): fairly stable; growth of NALM6-luc tumors [4]: did not have an impact
